Laboratory results as given in US20230381185A1, “NOVEL FORMULATIONS FOR ORAL ADMINISTRATION OF THERAPEUTIC AGENTS TO THE GASTROINTESTINAL TRACT” (3-D Matrix, Ltd., priority 2022, published 2023).
Entries after “also recorded” stand apart in the source; their conditions may differ. Read-outs that look alike come from different tables or passages of the source.

Columns and labels:
DSS-induced colitis mice = experiment: Efficacy in DSS-induced colitis (DAI, colon weight/length, MPO, histology, immune cells); type: in vivo
From the text: An additional benefit of this nanocomposite system is that it can be dried and then reconstituted in vivo or under in vivo-like conditions without substantial alteration of its properties. The dried nanocomposite offers the advantage of a long-duration storage, but, perhaps more importantly, the dried nanocomposite powder can be encapsulated in various types of capsules known in the art for a controlled and localized delivery in precise part of the GIT with systems differentiated in the basis of GIT transit times, pH changes, bacterial enzymes, mucoadhesion, nanotechnologies and disease-associated triggers. One such capsule, designed for release of hydrated RADA16 hydrogel doped with a macromolecular dye, fluorescein isothiocyanate—dextran 4 kDa (FD4), mostly in the large intestine, has been described by Eleftheriadis et al. (Pharm. Development Tech. 25(4): 1-23 (2020)). That reference discloses a pH sensitive hydroxypropyl methylcellulose-phthalate (HPMCP)-based 3D-printed capsule. Other encapsulation materials suited to the present invention include poly(meth) acrylate polymers and members of the Eudragit family (Chu, J. N. and Traverso, G., Foundations of gastrointestinal-based drug delivery and future developments, Nature Reviews: Gastroenterology & Hepatology (2021) doi: 10.1038/s41575-021-00539-w). The present invention is based, at least, on the following findings/parameters: • 1. A nanocomposite based on the physical mixture of a preformed nanosystem (namely nanoemulsion, NE) loaded with a drug intended for the treatment of IBD, and a preformed self-assembling-peptide ([…])-based hydrogel (PURASTAT) was created at different concentrations of SAP. • 2. The creation of nanocomposites characterized by two different concentrations, led to the development of systems with different structural properties, leading to differences in the drug-release behaviours. • 3. […] The use of nanocomposite to test the therapeutic efficacy of the drug on an IBD-mouse model brought results based on different technique, detailed herein. • 5. Certain disease factors were improved by administration of PS hydrogel/NE mixture alone, even in the absence of any active ingredients. Disease activity index (DAI) score, used to evaluate the DSS-induced colitis. […] For each parameter a score from 0 to 4 was attributed and afterwards divided by three, resulting in the total DAI score ranging from 0 (unaffected) to 4 (severe colitis) (Gonçalves, F. da C., Schneider, N., H. M.-A. S. & 2013, U. Characterization of Acute Murine Dextran Sodium Sulfate (DSS) Colitis: Severity of Inflammation is Dependent on the DSS Molecular Weight and Concentration. Acta Sci. Vet. 41, 1-9 (2013)). Colon length and weight, which is often reduced in cases of inflammation (Biton, I. E. et al. Assessing Mucosal Inflammation in a DSS-Induced Colitis Mouse Model by MR Colonography. Tomogr. (Ann Arbor, Mich.) 4, 4-13 (2018)). The activity of the enzyme myeloperoxidase (MPO), which is a direct indicator of neutrophils infiltration into the colonic mucosa, and thus an important marker of inflammation (Hansberry, D. R., Shah, K., Agarwal, P. & Agarwal, N. Fecal Myeloperoxidase as a Biomarker for Inflammatory Bowel Disease. Cureus 9, (2017)). Histomorphologic evaluation by HPS stain (hematoxylin phloxine saffron stain), similar to H&E. HPS can differentiate between the most common connective tissue (collagen) and muscle and cytoplasm by staining the former yellow and the latter two pink, unlike an H&E stain, which stains all three pink. Immunohistochemistry for the detection of CD45 positive cells.
Efficacy of drug-loaded nanocomposites compared to a variety of controls was tested using mice of the same strain used in Example 5. Based on the results from the Stage 1 in vivo studies already described, all mice (except for the G1 healthy control group) were given 3% v/v DSS in drinking water for 4 days. After 4 days all mice were given normal drinking water (i.e., no DSS). […]

[1] = tested on: liver punch hole injuries in pigs; details: cited from earlier work; for inflammatory cell infiltration due to the SAP: short-term study
[2] = cited from earlier work
[3] = tested on: oozing wounds in the walls of the stomach and/or duodenum of pigs; details: endoscopic administration, no control group; cited from earlier work

## C[C@@H]1CCN(C(=O)CC#N)C[C@@H]1N(C)c1ncnc2[nH]ccc12 [TFC, Tofacitinib]
DSS-induced colitis mice; indicator of neutrophil infiltration
  Myeloperoxidase (MPO) activity in colonic tissue: slight improvement
DSS-induced colitis mice; mouse, in vivo
  Th2 or Treg populations: did not affect
  infiltration of lymphocytes / CD45+ cells: reduced infiltration of lymphocytes
  proportion of Th1 and Th17 proinflammatory populations: significantly reduced
  total amount of T cells (CD3+): strongly reduced
DSS-induced colitis mice; sacrifice at day 10, relative to G2 untreated IBD mice
  colon weight/colon length ratio (g/cm): statistically significant improvement; also recorded: significantly prevented
DSS-induced colitis mice; with respect to G2
  epithelium and muscularis structure / architecture (histology): considerable amelioration

## Ac-RADARADARADARADA-CONH2 [RADA16]
[1]
  inflammatory cell infiltration due to the SAP: absence
[2]; 2.5% in water
  storage modulus G′: about 350 Pa

## KLDLKLDLKLDL [KLD12]
[2]; 1.5% in water
  storage modulus G′: about 350 Pa

## IEIKIEIKIEIKI [IEIK13]
[1]; compared to RADA16
  hemostasis: statistically significant improvement
[1]
  inflammatory cell infiltration due to the SAP: absence
[2]; 1% in water
  storage modulus G′: ~700 Pa
[3]
  hemostasis: hemostasis was achieved in both heparinized and non-heparinized animals
